For orientation: IC50 means the concentration at which inhibition is half-maximal.

The source of these data is ChEMBL document CHEMBL4680366, “Tumor-Targeted Bivalent Protein Degradation for Application in Cancer Therapy” (ACS Med Chem Lett, 2021).

Activity calls are given as the source filed them. No cut-off for these calls is given here.

Test [1] addresses Bromodomain-containing protein 4 (Homo sapiens, UniProt O60885). Kind of test: Binding affinity to recombinant human BRD4 BD1 and BD2 expressed in Escherichia coli BL21 incubated for 2 hrs under shaking condition by HTRF assay. Background: Time-resolved FRET reads energy transfer from a long-lived donor to a nearby acceptor.
In another test the test system is MV4-11. Kind of test: Antitumor activity at human MV4-11 cells xenografted in BALB/c mouse assessed as tumor growth inhibition at 25 to 100 mg/kg, ip administered for 3 to 4 weeks. It counts as functional, organism-based. The note with it: dose 25-100 mg/kg, time 3-4 weeks. (In general: Xenograft models place foreign cells or tissue in a host animal.)
Test [2] deals with Heat shock protein HSP 90-alpha/Bromodomain-containing protein 4 (Homo sapiens) (UniProt P07900+O60885). Kind of test: Protac activity at HSP90/BRD4 in human MV4-11 cells assessed as degradation of BRD4 at 40 to 1000 nM measured after 24 hrs by flow cytometry relative to control. It counts as cell-based. The following applies: dose 40-1000 nM. Background: In flow cytometry, cells or beads pass a laser one at a time.

For the compound `CCc1cc(-c2nnc(O)n2-c2ccc(CN3CCC(C(=O)N4CCC(CNC(=O)C[C@@H]5N=C(c6ccc(Cl)cc6)c6c(sc(C)c6C)-n6c(C)nnc65)C4)CC3)cc2)c(O)cc1O` (stereo not given in full), the IC50 in test [1] was less than 100 nM. For the compound `CCc1cc(-c2nnc(C(=O)NCC(F)(F)F)n2-c2ccc(CN3CCN(CC4CCN(C(=O)C[C@@H]5N=C(c6ccc(Cl)cc6)c6c(sc(C)c6C)-n6c(C)nnc65)CC4)CC3)cc2)c(O)cc1O`, the IC50 in test [1] was found to be 100 nM. In addition, the TGI entry with MV4-11 is “Active”.

Consider `Cc1sc2c(c1C)C(c1ccc(Cl)cc1)=N[C@@H](CC(=O)N[C@@H](C)c1ccc(CN3CCC(Cc4ccc(-n5c(O)nnc5-c5cc(C(C)C)c(O)cc5O)cc4)CC3)cc1)c1nnc(C)n1-2`, for which the IC50 in test [1] was less than 100 nM. As for `Cc1sc2c(c1C)C(c1ccc(Cl)cc1)=N[C@@H](CC(=O)N1CCC(CN3CCN(Cc4ccc(-n5c(O)nnc5-c5ccc(O)cc5O)cc4)CC3)CC1)c1nnc(C)n1-2`, the IC50 in test [1] is less than 100 nM. For `Cc1sc2c(c1C)C(c1ccc(Cl)cc1)=N[C@@H](CC(=O)N1CCC(CN3CCN(Cc4ccc(-n5c(O)nnc5-c5cc(C(C)C)c(O)cc5O)cc4)CC3)CC1)c1nnc(C)n1-2` [listing 1 of 3 here], in test [1], the IC50 worked out at 100 nM. On to `Cc1sc2c(c1C)C(c1ccc(Cl)cc1)=N[C@@H](CC(=O)N1CCC(CN3CCN(Cc4ccc(-n5c(O)nnc5-c5cc(C(C)C)c(O)cc5O)cc4)CC3)CC1)c1nnc(C)n1-2` [listing 2 of 3 here], for which, in test [1], the IC50 came out at 100 nM. For `Cc1sc2c(c1C)C(c1ccc(Cl)cc1)=N[C@@H](CC(=O)N1CCC(CN3CCN(Cc4ccc(-n5c(O)nnc5-c5cc(C(C)C)c(O)cc5O)cc4)CC3)CC1)c1nnc(C)n1-2` [listing 3 of 3 here], the Activity in test [2] was more than 50%. Moreover, in the test on MV4-11, the TGI entry is “Active”. As for `Cc1sc2c(c1C)C(c1ccc(Cl)cc1)=N[C@@H](CC(=O)N1CCC(CCN3CCC(Cc4ccc(-n5c(O)nnc5-c5cc(C(C)C)c(O)cc5O)cc4)CC3)CC1)c1nnc(C)n1-2`, in test [1], the IC50 is less than 100 nM.

Consider `CCc1cc(-c2nnc(O)n2-c2ccc(CN3CCN(CC4CCN(C(=O)C[C@@H]5N=C(c6ccc(Cl)cc6)c6c(sc(C)c6C)-n6c(C)nnc65)CC4)CC3)cc2)c(O)cc1O`, for which the IC50 in test [1] was determined as 100 nM. Besides, in test [2], the Activity is more than 50%. For `Cc1sc2c(c1C)C(c1ccc(Cl)cc1)=N[C@@H](CC(=O)NCCOCCN1CCC(Cc3ccc(-n4c(O)nnc4-c4cc(C(C)C)c(O)cc4O)cc3)CC1)c1nnc(C)n1-2`, the IC50 in test [1] is less than 100 nM. In the case of `Cc1sc2c(c1C)C(c1ccc(Cl)cc1)=N[C@@H](CC(=O)NCC(=O)NCC1CCN(C(=O)C3CCN(Cc4ccc(-n5c(O)nnc5-c5cc(C(C)C)c(O)cc5O)cc4)CC3)CC1)c1nnc(C)n1-2`, in test [1], the IC50 was less than 100 nM. Also, the Activity in test [2] is more than 50%.
